Test results as given in US20180235221A1 (priority 2015, published 2018).
Like-named read-outs stand apart in the source and are kept apart here.

Tested on: Qol resistant Pyricularia oryzae isolate (1328)
Assay type: cell-based
Conditions: single active compound, MTP, 405 nm, 7 days after inoculation

SMILES	Observed efficacy (0.016 ppm) [%]	Observed efficacy (0.063 ppm) [%]	Observed efficacy (0.25 ppm) [%]
Cc1cccc(-n2nnn(C)c2=O)c1COc1ccn(-c2ccc(Cl)cc2)n1 [II-3, 1-[2-[[1-(4-chlorophenyl)pyrazol-3-yl]oxymethyl]-3-methyl-phenyl]-4-methyl-tetrazol-5-one]	44		
CNC(=O)C(=N/OC)/C(C)=C\COc1ccn(-c2ccc(Cl)cc2Cl)n1 [Compound I-3, (Z,2E)-5-[1-(2,4-dichlorophenyl)pyrazol-3-yl]oxy-2-methoxyimino-N,3-dimethyl-pent-3-en-amide]		2	54
CNC(=O)C(=N/OC)/C(C)=C\COc1ccn(-c2ccc(Cl)cc2)n1 [Compound I-1, (Z,2E)-5-[1-(4-chlorophenyl)pyrazol-3-yl]oxy-2-methoxyimino-N,3-dimethyl-pent-3-enamide]		1	65
Cn1nnn(-c2cccc(Cl)c2COc2ccn(-c3ccc(Cl)cc3)n2)c1=O [II-1, 1-[3-chloro-2[[1-(4-chlorophenyl)-1H-pyrazol-3-yl]oxymethyl]phenyl]-4-methyl-tetrazol-5-one]	0		
Cn1nnn(-c2cccc(Br)c2COc2ccn(-c3ccc(Cl)cc3)n2)c1=O [II-2, 1-[3-bromo-2-[[1-(4-chlorophenyl)pyrazol-3-yl]oxymethyl]phenyl]-4-methyl-tetrazol-5-one]	2		
Cn1nnn(-c2cccc(F)c2COc2ccn(-c3ccc(Cl)cc3)n2)c1=O [II-4, 1-[2-[[1-(4-chlorophenyl)pyrazol-3-yl]oxymethyl]-3-fluoro-phenyl]-4-methyl-tetrazol-5-one]		1	
Cn1nnn(-c2cccc(F)c2COc2ccn(-c3ccc(Cl)cc3Cl)n2)c1=O [II-5, 1-[2-[[1-(2,4-dichlorophenyl)pyrazol-3-yl]oxymethyl]-3-fluoro-phenyl]-4-methyl-tetrazol-5-one]			44
CC(=NOCc1c(C)cccc1-n1nnn(C)c1=O)c1cccc(C(F)(F)F)c1 [II-11, -methyl-4-[3-methyl-2-[[1-[3-(trifluoromethyl)-phenyl]-ethylideneamino]oxymethyl]phenyl]tetrazol-5-one]		2	
